From ChEMBL document CHEMBL2218064, “Structure-activity relationship data for chemical series of antagonists of the P2X7 receptor (Supplementary Bioactivity Data for publication CHEMBL1157114)” come the findings set out here.

This assay concerns the target T1, P2X purinoceptor 7 (Homo sapiens, UniProt Q99572).
T1 sequence (Q99572 whole entry): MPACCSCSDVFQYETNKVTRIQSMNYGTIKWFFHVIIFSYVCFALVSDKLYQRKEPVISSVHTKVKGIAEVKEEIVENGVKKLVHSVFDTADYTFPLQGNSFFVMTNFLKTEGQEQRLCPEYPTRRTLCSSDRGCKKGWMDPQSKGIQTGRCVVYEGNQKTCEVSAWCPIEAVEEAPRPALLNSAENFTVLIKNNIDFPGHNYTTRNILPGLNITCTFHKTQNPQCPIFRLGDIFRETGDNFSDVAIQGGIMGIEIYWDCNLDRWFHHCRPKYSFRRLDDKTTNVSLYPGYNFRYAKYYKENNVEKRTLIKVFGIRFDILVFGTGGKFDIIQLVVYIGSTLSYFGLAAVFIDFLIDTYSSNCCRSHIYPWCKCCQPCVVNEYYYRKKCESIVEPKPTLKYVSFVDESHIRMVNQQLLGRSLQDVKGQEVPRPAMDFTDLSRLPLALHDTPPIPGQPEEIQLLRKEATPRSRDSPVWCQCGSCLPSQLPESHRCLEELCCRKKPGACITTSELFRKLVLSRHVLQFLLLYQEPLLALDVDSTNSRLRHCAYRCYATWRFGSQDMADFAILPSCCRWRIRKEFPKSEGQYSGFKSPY
Kind of assay: SUPPLEMENTARY: Inhibition of human P2X7 receptor assessed as inhibition of ethidium bromide accumulation. Same assay as CHEMBL1103860.
On to `O=C(NCc1ccc(Cl)cc1Cl)C1CC(=O)N(Cc2ccccc2)C1` (stereo unspecified), for which the IC50 is 158 nM.
On to `CN1[C@H](C(=O)NCc2ccccc2Cl)CCS1(=O)=O`, for which the IC50 is 794 nM.
For `CCN1C(=O)C(C)(C)C[C@H]1C(=O)NCc1ccc(F)cc1Cl` the value was 50.1 nM; for `CN1C(=O)OC[C@@H]1C(=O)NCc1cccc(C(F)(F)F)c1Cl`, 50.1 nM.
For `CCN1[C@H](C(=O)NCc2ccc(Cl)cc2Cl)CCCS1(=O)=O` the value was 200 nM; for `CCN1[C@H](C(=O)NCc2ccc(F)cc2Cl)CCCS1(=O)=O`, 631 nM; for `CN1[C@H](C(=O)NCc2ccc(Cl)cc2Cl)CCCS1(=O)=O`, 251 nM.
As for `O=C(NCc1cccc(C(F)(F)F)c1Cl)C1CC(=O)N(Cc2ccccc2)C1` (stereo unspecified), the IC50 is 316 nM.
For `Cc1c(Cl)cccc1CNC(=O)[C@@H]1CCC(=O)N1C1CCC1` the value was 15.8 nM; for `O=C1C(=O)N(c2cccc3ccccc23)CCN1Cc1c(F)cccc1Cl`, 631 nM; for `O=C1C(=O)N(c2cccc3ccccc23)CCN1Cc1ccc(F)cc1Cl`, 63.1 nM.
For `O=C(NCc1cccc(C(F)(F)F)c1Cl)[C@@H]1CCC(=O)N1C1CCC1` the value was 2 nM; for `O=C(NCc1ccc(Cl)cc1Cl)[C@@H]1CCC(=O)N1C1CCC1`, 5.01 nM.
For `O=C(NCc1ccc(F)c(F)c1Cl)[C@@H]1CCC(=O)N1C1CCC1` the value was 10 nM; for `O=C(NCc1cccc(Cl)c1Cl)[C@@H]1CCC(=O)N1C1CCC1`, 12.6 nM; for `Cc1c(CNC(=O)[C@@H]2CCC(=O)N2C2CCC2)cccc1C(F)(F)F`, 3.16 nM.
As to `CCN1[C@H](C(=O)NCc2ccc(F)c(F)c2F)CCCS1(=O)=O`, the IC50 is 631 nM.
The result for `CC(C)CN1[C@H](C(=O)NCc2ccc(Cl)cc2Cl)CCS1(=O)=O` reads 158 nM; that for `CC(C)CN1[C@H](C(=O)NCc2ccc(F)cc2Cl)CCS1(=O)=O`, 501 nM.
Take `CN1C[C@@H](C(=O)NCc2ccc(F)c(F)c2Cl)N(C)C1=O`: the IC50 is 3.16 nM.
For `O=C(NCc1ccc(Cl)cc1Cl)[C@H]1CCC(=O)N1Cc1cccnc1` the value was 63.1 nM; for `O=C(NCc1cccc(C(F)(F)F)c1Cl)[C@H]1CCC(=O)N1Cc1cccnc1`, 50.1 nM.
Consider `Cc1cnn(C)c1CC(=O)NCc1ccc(F)c(F)c1Cl`, for which the IC50 was 31.6 nM.
For `O=C1C(=O)N(c2cccc3c2CCCC3)CCN1Cc1ccc(F)cc1Cl` the value was 50.1 nM; for `O=C1C(=O)N(c2cccc(N3CCOCC3)c2)CCN1Cc1ccc(F)cc1Cl`, 251 nM.
For `CCN1C(=O)CC[C@H]1C(=O)NCc1ccccc1C#N` the value was 631 nM.
For `CCN1C(=O)CC[C@H]1C(=O)NCc1cccc(C(F)(F)F)c1C#N`, the IC50 is 3.16 nM.
The result for `C[C@H]1CC(=O)N(C)[C@@H]1C(=O)NCc1cccc(C(F)(F)F)c1Cl` reads 100 nM; that for `C[C@@H]1CC(=O)N(C)[C@@H]1C(=O)NCc1cccc(C(F)(F)F)c1Cl`, 15.8 nM.
For `CN1C(=O)CC[C@@H]1C(=O)NCc1ccc(Cl)cc1Cl`, the IC50 is 50.1 nM.
The result for `CC(C)(C)CN1C(=O)CC[C@@H]1C(=O)NCc1cccc(C(F)(F)F)c1Cl` reads 158 nM.
The result for `CC(C)N1[C@H](C(=O)NCc2ccc(Cl)cc2Cl)CCCS1(=O)=O` reads 501 nM.
The result for `Cc1c(Cl)cccc1CNC(=O)[C@@H]1CCCS(=O)(=O)N1C(C)C` reads 631 nM; that for `CN1[C@H](C(=O)NCc2ccc(F)cc2Cl)CCS1(=O)=O`, 126 nM; that for `O=C(NCc1cccc(C(F)(F)F)c1Cl)[C@H]1CCC(=O)N1Cc1ccccn1`, 63.1 nM.
With `Cc1cccc(Cl)c1CNC(=O)[C@@H]1CCS(=O)(=O)N1C`, the IC50 is 398 nM.
The result for `CN1[C@H](C(=O)NCc2ccc(Cl)cc2Cl)CCS1(=O)=O` reads 31.6 nM; that for `CN1C[C@@H](C(=O)NCc2cccc(C(F)(F)F)c2F)N(C)C1=O`, 7.94 nM; that for `CN1C[C@@H](C(=O)NCc2ccc(F)c(F)c2F)N(C)C1=O`, 31.6 nM.
For `CN1C[C@@H](C(=O)NCc2ccc(F)cc2C(F)(F)F)N(C)C1=O` the value was 50.1 nM.
For the compound `CN1C[C@@H](C(=O)NCc2ccc(F)cc2Cl)N(C)C1=O`, the IC50 was 10 nM.
Regarding `CCN1[C@H](C(=O)NCc2ccccc2Cl)CCS1(=O)=O`, the IC50 was 501 nM.
The result for `CC(C)N1[C@H](C(=O)NCc2ccc(F)cc2C(F)(F)F)CCS1(=O)=O` reads 631 nM; that for `CN1[C@H](C(=O)NCc2ccc(F)cc2C(F)(F)F)CCS1(=O)=O`, 398 nM.
The result for `Cc1cnn(CC(F)(F)F)c1CC(=O)NCc1ccc(F)c(F)c1Cl` reads 50.1 nM; that for `CN1C(=O)CC[C@H]1C(=O)NCc1ccc(F)c(C(F)(F)F)c1Cl`, 3.16 nM; that for `CCN1[C@H](C(=O)NCc2ccc(F)c(F)c2F)CCS1(=O)=O`, 251 nM.
For `Cc1c(Cl)cccc1CNC(=O)[C@@H]1CCS(=O)(=O)N1C` the value was 100 nM.
`Cc1c(Cl)cccc1CNC(=O)[C@@H]1CCS(=O)(=O)N1C(C)C`: the IC50 was 251 nM.
The result for `CCN1[C@H](C(=O)NCc2cccc(Cl)c2C)CCS1(=O)=O` reads 50.1 nM.
`CCN1[C@H](C(=O)NCc2ccc(F)cc2C(F)(F)F)CCS1(=O)=O`: the IC50 was 126 nM.
The result for `CC(C)N1[C@H](C(=O)NCc2ccc(F)cc2Cl)CCS1(=O)=O` reads 200 nM; that for `CC(C)N1[C@H](C(=O)NCc2ccc(F)c(F)c2F)CCS1(=O)=O`, 501 nM; that for `CCN1[C@H](C(=O)NCc2ccc(Cl)cc2Cl)CCS1(=O)=O`, 15.8 nM.
The result for `CC(C)N1[C@H](C(=O)NCc2ccc(Cl)cc2Cl)CCS1(=O)=O` reads 50.1 nM.
For `CC1CC(=O)N(C)[C@@H]1C(=O)NCc1cccc(C(F)(F)F)c1Cl` (stereo partly specified) the value was 25.1 nM; for `CCN1C(=O)[C@@H](Cc2ccccc2)C[C@H]1C(=O)NCc1ccc(F)cc1Cl`, 126 nM.
In the case of `CN1[C@H](C(=O)NCc2cccc(C(F)(F)F)c2Cl)CCS1(=O)=O`, the IC50 was 15.8 nM.
`CN1[C@H](C(=O)NCc2ccc(F)c(F)c2Cl)CCS1(=O)=O`: the IC50 is 79.4 nM.
`CCN1C(=O)[C@H](Cc2ccccc2)C[C@H]1C(=O)NCc1cccc(C(F)(F)F)c1Cl`: the IC50 is 31.6 nM.
On to `CCN1[C@H](C(=O)NCc2ccc(F)c(F)c2Cl)CCS1(=O)=O`, for which the IC50 was 79.4 nM.
With `CCN1[C@H](C(=O)NCc2cccc(C(F)(F)F)c2Cl)CCS1(=O)=O`, the IC50 was 10 nM.
With `CN1C(=O)CC[C@H]1C(=O)NCc1cccc(C(F)(F)F)c1C#N`, the IC50 was 6.31 nM.
As to `Cn1nccc1CC(=O)NCc1cccc(C(F)(F)F)c1Cl`, the IC50 is 25.1 nM.
The result for `CCN1C(=O)C(C)(C)C[C@H]1C(=O)NCc1cccc(C(F)(F)F)c1Cl` reads 5.01 nM.
For `CCN1C(=O)C(C)(C)C[C@H]1C(=O)NCc1ccc(F)c(F)c1Cl` the value was 39.8 nM.
For `CN1C(=O)N(Cc2ccccn2)CC1C(=O)NCc1ccc(F)c(F)c1Cl` (stereo unspecified) the value was 79.4 nM; for `O=C1C(=O)N(c2ccccc2)CCN1Cc1ccc(F)cc1Cl`, 398 nM; for `Cc1ccccc1N1CCN(Cc2ccc(Cl)cc2Cl)C(=O)C1=O`, 10 nM.
On to `O=C(c1ccc(F)cc1Cl)N1CCN(c2cccc3ccccc23)C(=O)C1`, for which the IC50 is 100 nM.
The result for `O=C1C(=O)N(c2ccccc2F)CCN1Cc1ccc(F)cc1Cl` reads 126 nM; that for `Cc1cccc(N2CCN(Cc3ccc(F)cc3Cl)C(=O)C2=O)c1C`, 5.01 nM.
The result for `COc1ccccc1N1CCN(Cc2ccc(F)cc2Cl)C(=O)C1=O` reads 50.1 nM; that for `Cc1cccc(N2CCN(Cc3ccc(F)cc3Cl)C(=O)C2=O)c1`, 158 nM; that for `COc1cccc(N2CCN(Cc3ccc(F)cc3Cl)C(=O)C2=O)c1`, 158 nM.
The result for `O=C1C(=O)N(c2ccccc2Cl)CCN1Cc1ccc(F)cc1Cl` reads 20 nM; that for `Cc1ccccc1N1CCN(Cc2ccc(F)cc2Cl)C(=O)C1=O`, 50.1 nM; that for `Cc1ccccc1N1CCN(Cc2ccccc2Cl)C(=O)C1=O`, 126 nM.
With `Cc1ccccc1N1CCN(Cc2ccccc2F)C(=O)C1=O`, the IC50 was 1000 nM.
For `Cc1ccccc1N1CCN(Cc2ccc(F)c(F)c2F)C(=O)C1=O` the value was 251 nM; for `Cn1nccc1CC(=O)NCc1ccc(F)cc1Cl`, 251 nM.
The result for `Cn1nccc1CC(=O)NCc1ccc(F)c(F)c1Cl` reads 158 nM; that for `Cn1nccc1CC(=O)NCc1ccc(Cl)cc1Cl`, 126 nM.
The result for `Cn1ncc(Cl)c1CC(=O)NCc1ccc(F)c(F)c1Cl` reads 31.6 nM.
On to `Cn1ncc(Cl)c1CC(=O)NCc1ccc(Cl)cc1Cl`, for which the IC50 is 12.6 nM.
As for `Cc1ccccc1N1CCN(Cc2cccc(Cl)c2Cl)C(=O)C1=O`, the IC50 is 25.1 nM.
The result for `Cn1ncc(F)c1CC(=O)NCc1ccc(F)cc1Cl` reads 126 nM; that for `Cn1ncc(F)c1CC(=O)NCc1ccc(F)c(F)c1Cl`, 100 nM; that for `Cn1ncc(F)c1CC(=O)NCc1ccc(Cl)cc1Cl`, 50.1 nM.
In the case of `Cc1ccccc1N1CCN(Cc2ccc(F)cc2C(F)(F)F)C(=O)C1=O`, the IC50 was 126 nM.
The result for `Cc1ccccc1N1CCN(Cc2cccc(C(F)(F)F)c2Cl)C(=O)C1=O` reads 39.8 nM.
